Patent US10213494B2, “Treatment of synucleinopathies” (The Brigham and Women's Hospital, Inc., priority 2007, dated 2019)

Columns and labels:
[1] = tested on: rat αS in MES23.5 cells; test: Sandwich ELISA of co-transfected rat αS in MES23.5 cells; assay type: cell-based; conditions: human Cathepsin D, same paradigm
[2] = tested on: α-synuclein protein in MES23.5 cells; test: Western blot of α-synuclein in co-transfected MES23.5 cells; assay type: cell-based, human; conditions: co-expression with αS for 24 hours; syn-1, 7071AP and hSA-2 antibodies
Experimental: Cells were transfected with 0, 0.25, 0.5, 1, 5, and 10 μg (per 10 cm dish) of plasmid. 24 hours later, cells were washed with Tris-buffered saline and lysed in 140 mM NaCl, 50 mM Tris-Hcl, pH 8.0, 1 mM EDTA, 0.5% Triton-X100, and 1× protease inhibitors. Lysates were centrifuged at 100,000×g for 30 min at 4° C.; the top 2/3 of supernatants were removed and frozen in siliconized tubes at −80° C. Samples were run on SDS/PAGE, using 1 mM DTT as the reducing agent. Expression of the αS protein was confirmed at 24 hours post-transfection by Western blotting, where cell lysates were probed with a monoclonal antibody against αS protein (syn-1 antibody, BD Transduction Labs).
MES23.5 cells were transfected with 0.5 μg αS-encoding SNCA cDNA per 10 cm dish plus either 1.25, 2.5 or 5 μg (low, medium, or high) GBA-encoding cDNA in the absence or presence of 5 μg of Prosaposin-encoding cDNA. All arms of the experiment were balanced up to a total of 10.5 μg cDNA per 10 cm dish using empty vector cDNA. The GBA- and Prosaposin-encoding cDNA plasmids under a CMV promoter, as well as the pCMV-XL5 empty vector were purchased from OriGene Technologies, Inc (clones had been fully sequence-verified after isolation and a maxiprep). 24 hours later, cells were lysed and probed for GBA and αS protein levels. The upper panel in of FIG. 2B3 is a representation of a Western Blot indicating expression of GBA protein in the absence and presence of co-transfected prosaposin. GBA was probed using the monoclonal antibody 8E4. GBA over-expression occurred in a slightly gene-dosage dependent way in the absence of prosaposin. In the presence of prosaposin over-expression, the GBA signal itself was decreased. […]

[3] = tested on: MES-syn cells; test: MTT assay of cellular metabolism; assay type: cell-based, rodent; conditions: CTSD cDNA 5 μg/10 cm dish; control vector 100+/−4.05%; n=6
Experimental: (§1) To confirm that the effect of Cathepsin D on lowering of αS in MES23.5 cells was specific and was not caused by a general decrease in cellular metabolism and integrity, the MTT and LDH assays were performed on MES-syn cells that had been co-transfected with the highest amount of Cathepsin D-encoding cDNA (5 μg/10 cm dish). Lysis of cells with 0.1% Triton-X® 100 served as a positive control, representing maximal cell death.

[4] = tested on: MES-syn cells; test: LDH release assay of cellular integrity; assay type: cell-based, rodent; conditions: enzyme cDNA 5 μg/10 cm dish, versus control vector transfected cells
Experimental: as §1
To confirm that the effect of Cathepsin F on lowering of αS was specific and was not caused by a general decrease in cellular integrity, the LDH assay was performed on MES-syn cells that had been co-transfected with Cathepsin F-encoding CTSF cDNA (5 μg/10 cm dish). Lysis of cells with 0.1% Triton-X 100 served as a positive control for cell toxicity, promoting maximal cell death.

cathepsin D: human lysosomal aspartyl protease expressed from CTSD cDNA plasmid under a CMV promoter
effect on level of co-transfected rat αS [1]: able to lower the levels of co-transfected rat αS
generation of lower or higher molecular weight αS species [2]: did not lead to the generation of any visible lower or higher molecular weight species
MTT signal [3]: 101.3+/−3.91%
LDH signal [4]: identical to that of control vector transfected cells
